Data on 53 compounds can be found in BindingDB's records for doi:10.7270/Q2319T8T (The Scripps Research Institute Molecular Screening Center, 2007).

Sequence of Steroidogenic factor 1 (Q13285 whole entry, the tested form may be a part): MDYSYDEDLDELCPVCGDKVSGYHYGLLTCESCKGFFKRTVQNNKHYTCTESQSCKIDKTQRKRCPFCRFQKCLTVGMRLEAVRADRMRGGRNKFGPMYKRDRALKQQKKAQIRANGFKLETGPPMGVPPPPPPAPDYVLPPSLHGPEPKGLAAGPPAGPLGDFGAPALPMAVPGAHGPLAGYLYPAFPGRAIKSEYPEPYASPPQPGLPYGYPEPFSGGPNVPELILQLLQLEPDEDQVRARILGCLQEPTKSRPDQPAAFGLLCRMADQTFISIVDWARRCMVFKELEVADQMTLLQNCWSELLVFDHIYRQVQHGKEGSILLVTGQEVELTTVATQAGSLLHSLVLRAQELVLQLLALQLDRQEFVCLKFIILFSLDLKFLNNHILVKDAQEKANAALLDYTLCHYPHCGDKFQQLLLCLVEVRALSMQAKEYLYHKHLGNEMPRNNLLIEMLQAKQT

One assay addresses Steroidogenic factor 1 (Homo sapiens, UniProt Q13285). Nature of the assay: SF-1 inhibitor potency, dose response, cell-based, CHO-K1, Gal4-SF-1 LBD, luciferase luminescence (AID 600).
Conditions: not given
As for `COc1cc2c(cc1NC(=O)CSc1nnnn1-c1ccccc1)oc1ccccc12` [MLS000082182], the IC50 (as a rule, the concentration that gives 50% inhibition) amounted to 6.02 µM.

For `Cc1nc(N2CCN(c3ccccc3)CC2)nc(O)c1Cc1cccc2ccccc12` [MLS000084491], the IC50 is > 3.67 µM.

For the compound `O=C(CSc1nnnn1-c1ccccc1)Nc1nsc(-c2ccc(Cl)cc2)n1` [MLS000085595], the IC50 was 4.9 µM.

For `Cc1cc(NC(=O)CCCS(=O)(=O)c2nc(-c3cccs3)cc(C(F)(F)F)n2)no1` [MLS000086269], the midpoint of inhibition, the IC50, lay at 8.2 µM.

As to `CC1(C)COCN1S(=O)(=O)c1ccc(C(=O)Nc2nnc(-c3ccc(Cl)s3)o2)cc1` [MLS000086346], inhibition was half-maximal at 7.61 µM (IC50).

In turn, `COc1ccc(-c2nc(CSCC(=O)NCc3ccco3)c(C)o2)cc1` [MLS000089353] showed an IC50 of 5.87 µM.

`COCCNC(=O)CSCc1nc(-c2ccc(SC)cc2)oc1C` [MLS000089367] registered an IC50 of 0.595 µM.

In the case of `CN(C)c1ccc(-c2nc3ccccc3n2C)cc1` [MLS000089904], the IC50 is > 3.67 µM.

Regarding `O=C(NCc1ccco1)c1ccc2nc3sc4c(c3c(=O)n2c1)CCCC4` [MLS000091875], the IC50 is > 3.67 µM.

For `O=C(NCCCN1CCOCC1)c1csc2c1CCCC2` [MLS000093382], the IC50 is > 99 µM.

In turn, `O=c1cc(N2CCN(c3cccc(Cl)c3)CC2)[nH]c(=O)n1C1CCCCC1` [MLS000094380] yielded an IC50 of 0.315 µM.

`O=c1cc(N2CCN(c3ccccc3)CC2)[nH]c(=O)n1C1CCCCC1` [MLS000094382] came in with an IC50 of 2.99 µM.

Consider `CCCC(=O)N1CCN(c2ccc(NC(=O)c3cc4ccccc4o3)cc2Cl)CC1` [MLS000096729], for which the IC50 worked out at 8.79 µM.

Turning to `COc1ccc(C(=O)Nn2c(SCC(=O)NCc3ccco3)nc3ccccc3c2=O)cc1` [MLS000097349], 5.75 µM corresponded to half-maximal inhibition (IC50).

`O=C(Nc1nc(-c2ccc(Cl)s2)cs1)c1ccncc1` [MLS000098514]: the IC50 is > 99 µM.

`O=C(NCCOc1ccccc1)c1ccc2c(c1)OCO2` [MLS000100028]: the IC50 is > 1.22 µM.

For `O=C(Nc1ccccc1)c1cccc(-c2nnc(-c3ccccc3)o2)c1` [MLS000100081], inhibition was half-maximal at 4.2 µM (IC50).

`COc1ccc(-n2ncc3c(N(C)C4CCCCC4)ncnc32)cc1` [MLS000100813] had an IC50 of 0.292 µM. This IC50 lies about 14-fold lower than the previous one.

Turning to `Cc1cccc(-n2ncc3c(N(C)C4CCCCC4)ncnc32)c1` [MLS000100814], the IC50 was > 3.67 µM.

For the compound `O=C(Nc1nc2cc3c(cc2s1)OCO3)C1=COCCO1` [MLS000103798], it took 3.7 µM to reach half-maximal inhibition (IC50).

With `COc1ccc(C(NC(C)=O)c2ccc3cccnc3c2O)c(OC)c1` (stereo not drawn) [MLS000109349], the IC50 was > 3.67 µM.

For `CN(C)c1ccc(NC(=S)c2ccccn2)cc1` [MLS000111989], the IC50 was found to be 2.41 µM. That is a single-digit micromolar value.

As to `Cc1cc(C=Nn2cnnc2)c(C)n1-c1ccc(OCc2ccc(F)cc2)cc1` [MLS000112167], the IC50 was > 3.67 µM.

As to `Cc1cc(C=Nn2cnnc2)c(C)n1-c1ccc(OCc2ccccc2F)cc1` [MLS000112180], the IC50 was > 3.67 µM.

Take `Cc1sc(NC(=O)c2ccco2)c(C(c2cccnc2)N2CCN(c3ccc(F)cc3)CC2)c1C` (stereo not drawn) [MLS000114428]: the IC50 was > 11 µM.

As to `O=C(Nc1nc2ccccc2[nH]1)c1ccccc1F` [N-1,3-dihydro-2H-benzimidazol-2-ylidene-2-fluorobenzamide], half-maximal inhibition (IC50) required 1.55 µM.

Take `N#Cc1c(NC(=O)CSc2nc[nH]n2)sc2c1CCCCC2` [N-(3-cyano-5,6,7,8-tetrahydro-4H-cyclohepta[b]thien-2-yl)-2-(1H-1,2,4-triazol-3-ylthio)acetamide]: half-maximal inhibition (IC50) required 0.098 µM.

`c1ccc(N=C2N=C(Nc3ccccn3)c3ccccc32)nc1` [N-pyridin-2-yl-3-pyridin-2-yliminoisoindol-1-amine] displayed a 50% inhibitory concentration (IC50) of 2.24 µM.

`c1ccc2nc(-c3nc4ccccc4[nH]3)ccc2c1` [SMR000008748] yielded an IC50 of 2.38 µM.

In turn, `O=S1(=O)C=C(Sc2nc3cc(Cl)ccc3o2)c2ccccc21` [SMR000019512] yielded an IC50 of 5.11 µM.

`CCCCS(=O)(=O)/C=C\C=C/S(=O)(=O)CCCC` [SMR000020833] displayed an IC50 of 1.3 µM.

`CN1C2C=C3C(C#N)=C(N)C(C#N)(C#N)[C@@H](c4ccc(Cl)cc4)[C@@H]3C1CC2` (stereo partly drawn) [SMR000038778] yielded an IC50 of 3.35 µM. This IC50 is about 2.6-fold higher than that of the compound before.

`c1ccc2c(c1)CCN(c1ncnc3c1[nH]c1ccccc13)C2` [SMR000039631] yielded an IC50 of 9.03 µM.

With `C/C(Cl)=C\Cn1c(NCCc2ccccc2)nc2c1c(=O)n(C)c(=O)n2C` [SMR000044779], the IC50 was > 11 µM.

Turning to `Cc1ccc2c(c1)[nH]c1c(N3CCN(Cc4ccccc4)CC3)ncnc12` [SMR000044826], the IC50 is > 3.67 µM.

On to `c1ccc(-c2nc(N3CCCCCC3)c3ccccc3n2)nc1` [SMR000046752], for which 3.46 µM corresponded to half-maximal inhibition (IC50). In other words, the single-digit micromolar range.

As for `COCCn1c(C)cc(C(=O)COC(=O)c2[nH]nc3ccccc23)c1C` [SMR000068187], the IC50 came out at 9.87 µM.

For `COc1cc(NS(=O)(=O)c2ccc(C)cc2)c2ncccc2c1` [SMR000071147], the IC50 is > 3.67 µM.

Regarding `CC(C)(C)c1ccc(-c2cc(N)[nH]n2)cc1` [SMR000095263], the IC50 was determined as 5.25 µM. This lies in the single-digit micromolar range.

`CSC1=NC2=C(C(=O)CC(C)(C)C2)C(c2ccc(Cl)cc2)C1C#N` (stereo not drawn) [SMR000102109] gave a 50% inhibitory concentration (IC50) of 21.3 µM.

On to `COc1nc(Nc2nc(O)c3ccccc3n2)nc2ccc(C)cc12` [SMR000108404], for which the half-maximal inhibitory concentration (IC50) was 2.1 µM.

`CCOC(=O)C(C)Oc1cccc2c(=O)n(CC(=O)NCc3ccc4c(c3)OCO4)ccc12` (stereo not drawn) [ethyl 2-[(2-{[(2H-1,3-benzodioxol-5-ylmethyl)carbamoyl]methyl}-1-oxo-1,2-dihydroisoquinolin-5-yl)oxy]propanoate] returned an IC50 of 0.315 µM.

`CCOC(=O)C1C(Cn2cnc3ccccc32)=NC(=O)NC1c1cc(C)ccc1C` (stereo not drawn) [ethyl 6-(benzimidazol-1-ylmethyl)-4-(2,5-dimethylphenyl)-2-oxidanylidene-3,4-dihydro-1H-pyrimidine-5-carboxylate] displayed an IC50 of 23.5 µM.

Consider `COC(=O)/C(=C1/Oc2cc(C)oc(=O)c2S1)C(F)(F)F` [methyl (2E)-3,3,3-tris(fluoranyl)-2-(6-methyl-4-oxidanylidene-[1,3]oxathiolo[4,5-c]pyran-2-ylidene)propanoate], for which the midpoint of inhibition, the IC50, lay at 4.69 µM.

For the compound `CCCCCOC(=O)c1[nH]c2c(c1C)C(=O)CC(c1ccco1)C2` (stereo not drawn) [pentyl 6-(furan-2-yl)-3-methyl-4-oxidanylidene-1,5,6,7-tetrahydroindole-2-carboxylate], the IC50 was > 1.22 µM.

Regarding `COc1cc([C@@H]2c3cc4c(cc3[C@H](O)[C@H]3COC(=O)[C@H]23)OCO4)cc(OC)c1OC` [podophyllotoxin], half-maximal inhibition (IC50) was put at 0.0454 µM. In other words, the double-digit nanomolar range.

The assay is the same for the next values; noted with them: inactive by the depositor's call.
`COc1ccc(OC)c(NS(=O)(=O)c2ccc(N3CCCC3=O)cc2)c1` [MLS000079343] gave an IC50 of 36 µM.

`CCOc1cc(C(=O)N2CCc3cc(OC)c(OC)cc3C2)ccc1OC(F)F` [MLS000083614] came in with an IC50 of 12.9 µM.

Compound `O=S(=O)(NCc1cn2ccsc2n1)c1ccc(Oc2ccccc2)cc1` [MLS000094195] returned an IC50 of 34.5 µM.

In turn, `O=C(Nc1nnc(C2CC2)o1)c1ccc(S(=O)(=O)N2CCCc3ccccc32)cc1` [MLS000116109] returned an IC50 of 13.7 µM.

Take `Cc1ccc(-c2csc(N3CCC(NS(=O)(=O)c4ccc5c(c4)OCCO5)CC3)n2)cc1` [N-[1-[4-(4-methylphenyl)-1,3-thiazol-2-yl]piperidin-4-yl]-2,3-dihydro-1,4-benzodioxine-6-sulfonamide]: the IC50 is 11.3 µM.

On to `CC(=O)c1c(C)[nH]c(C(=O)Nc2ccc(C)cn2)c1C` [SMR000026816], for which the midpoint of inhibition, the IC50, lay at 14.2 µM.

For `C=CCOC(=O)c1[nH]c2c(c1C)C(=O)CC(c1cc(OC)c(OC)c(OC)c1)C2` (stereo not drawn) [SMR000093465], the IC50 turned out to be 18.1 µM. This IC50 and that of the compound before are within 1.5-fold of each other.
